Results reported in PMC5841354, “Gomesin peptides prevent proliferation and lead to the cell death of devil facial tumour disease cells” (Cell Death Discovery, 2018).
Where a SMILES comes first, the peptide text is derived from it. Bridges are numbered along the chain shown (N, C = ends). [ ]: non-standard residue; d: D form. pGlu = O=C1CC[C@@H](C(=O)O)N1

Experiments:
DFTD4 cells [1] = experiment: MTT cell viability, DFTD4 cells; assay type: cell-based, Tasmanian devil (Sarcophilus harrisii); details: for cell viability / anti-proliferative activity in DFTD4 cells: 50 µg/mL
Excerpt: (§1) All DFTD (DFTD1, DFTD2, and DFTD4) and fibroblast (FIBS) cell lines were obtained from the Department of Primary Industries, Parks, Water, and Environment, State Government of Tasmania (DPIPWE) and were established as part of management plan and adhere to a standard operating practice. The DFTD1 cell line with catalogue number 3287 is derived from the tumour from a female devil (tag number: 06/2887) collected at St Marys, Eastern Tasmania in 2006. DFTD2 cell line with catalogue number 8961 was developed from a tumour from a male devil (tag number: 12/0625) collected at Kempton, Northern Tasmania in 2012. The DFTD4 cell line with catalogue number 4099 was developed from the tumour of a male devil (tag number: 07/0192) that was collected at Freycinet, east coast of Tasmania in 2007 and Fibroblasts cells (FIBS) with catalogue number 497 were obtained from a healthy devil male pup (tag number: 05/0962) held at Mount Pleasant, Southeastern of Tasmania in 2005.
(§2) Devil Facial Tumor cancer cell lines, and the control Tasmanian Devil fibroblast (FIBS) healthy cell line were maintained in a humidified incubator at 35 °C and 5% CO2. The DFTD cell lines were cultured in RPMI-1640 medium supplemented with 10% FCS, and 2 mM Glutamax. The FIBS was grown in GIBCO AmnioMAX-C100 Basal Medium liquid, containing AmnioMAX-C100 supplement. Penicillin/streptomycin (PS) (100 U/ml each) was added to both media. The cells were passaged at ~90% confluency. Functional studies were performed with passages up to 20. All cell lines were mycoplasma free.
(§3) Cell viability as an indicator of the number of viable and proliferative cells was measured by MTT according to the protocol of the manufacturer (Sigma-Aldrich, Australia). In brief, 8000 DFTD and 5000 FIBS cells/well were seeded in a 96-flat adherent microtiter well plate for 24 h to allow cell adhesion. Gomesin peptides and/or analogues were then added to the plates to measure MTT reduction. Plates were measured after 48 h at 540 nm absorbance in a microplate reader (BIOTEK PowerWave XS, USA). 0.1% SDS was used as a positive control (100% toxicity). A row of untreated cells was used to define 100% viability and blank wells containing only media were used to extract background. The concentration of gomesin peptides causing 50% inhibition (EC50) in DFTD and FIBS cells was determined using GraphPad Prism Software (Graphpad Inc, USA).

FIBS cells = experiment: MTT cell viability, non-transformed fibroblasts (FIBS); assay type: cell-based, Tasmanian devil (Sarcophilus harrisii); details: 48 h; for deleterious effects on FIBS viability: 50 µg/mL
Excerpt: as §1, §2, §3

DFTD4 cells [2] = experiment: Cell cycle analysis (PI, flow cytometry); assay type: cell-based, Tasmanian devil (Sarcophilus harrisii); details: 50 μg/mL, 24 h, mean ± SEM, three independent experiments
Protocol: DFTD4 cells were synchronised by removing serum from the medium for ~24 h. Cells were then transferred into medium containing serum and treated with AgGom or HiGom at 50 µg/mL for 24 h. Cells were detached mechanically, washed with PBS and fixed with 70% ethanol for ~1 h at 4 °C. Ethanol was removed by centrifugation (453 g for 5 min) and cells were washed with PBS. Cells were treated with 5 µL of 10 µg/mL ribonuclease A to remove RNA contamination and further incubated for 1 h at 37 °C to allow release of low-molecular weight DNA. Cell pellets were stained with 10 µL of propidium iodide (PI) (1 mg/ml) and analysed at a maximum emission of 605 nm using a LSR Fortessa 5 analyser (BD Biosciences, San Diego, CA, US). Approximately 10,000 events were recorded and data were analysed using FlowJo software v10.06 (FlowJo, US).

DFTD4 cells [3] = experiment: Annexin V-FITC/PI apoptosis and necrosis; assay type: cell-based, Tasmanian devil (Sarcophilus harrisii); details: 50 µg/mL, 24 h
Protocol: Apoptosis in DFTD4 cells treated with AgGom or HiGom was measured using an Annexin V-FITC Apoptosis detection kit in combination with a Canto II high-throughput fluorescence-activated cell sorter (BD Biosciences, USA). Briefly, cells were seeded at a density of 100,000 cells/well in a round-bottom 96-well plate and treated with 50 µg/mL AgGom or HiGom for 24 h. The cells were collected mechanically, washed twice with PBS and once with wash buffer provided by the manufacturer. Cells were stained simultaneously with FITC-labelled annexin V and PI for 30 min in the dark and at room temperature before being analysed.

DFTD4 cells [4] = experiment: qRT-PCR of cell cycle check-point, pro-survival and apoptosis genes; assay type: cell-based, Tasmanian devil (Sarcophilus harrisii); details: 50 μg/mL, vs. vehicle
Protocol: Total RNA was extracted from both untreated (control) and gomesin-treated DFTD4 cells using an RNeasy kit (Qiagen, Australia) and 1 µg was reverse-transcribed into cDNA using SensiFast (Bioline, UK). Quantitative real time-PCR (qRT-PCR) to quantitate mRNA expression was performed on a LightCycler Instrument (Roche Molecular Biochemicals, Australia) with Tasmanian devil 18S used as the reference (housekeeper) gene. All primers are listed in Supplementary.

DFTD4 cells [5] = experiment: Reactive oxygen species (Carboxy-H2DCFDA, flow cytometry); assay type: cell-based, Tasmanian devil (Sarcophilus harrisii); details: 50 μg/mL, 24 h, vs. untreated
Protocol: An Amplex Red Hydrogen Peroxidase assay kit (Invitrogen, Australia) was used to measure reactive oxygen species (ROS) generation in DFTD4 cells. A fluorescence probe that detects intracellular H2O2, Carboxy-H2DCFDA, was added 30 min prior to collecting cells to measure ROS production in DFTD4 cells that were previously treated with gomesin peptides at 50 µg/mL for 24 h. Fluorescent cells were washed twice with PBS prior to analysis on a FACSCalibur flow cytometer (BD Biosciences, USA) using excitation and emission wavelengths of 492 nm and 517 nm, respectively. Approximately 10,000 events were recorded per sample and the readout was analysed using FlowJo software v10.06 (FlowJo, USA).

DFTD4 cells [6] = experiment: Mitochondrial membrane potential (Rhodamine 123); assay type: cell-based, Tasmanian devil (Sarcophilus harrisii); details: 50 µg/mL, 24 h, vs. vehicle
Protocol: We measured the mitochondrial membrane potential (MMP) using Rhodamine 123 (Rhod-123) (Sigma-Aldrich, Australia), a cationic dye that is localised in mitochondria. Loss-of-MMP results in loss-of-Rhod-123 fluorescence. Approximately 1 × 10^6 DFTD4 cells treated with AgGom or HiGom at 50 µg/mL for 24 h were collected and resuspended in 0.1 ml of culture medium, stained with 10 µg/mL Rhod-123 for 30 min, and then washed with PBS. The intracellular concentration of Rho123 was determined immediately after by flow cytometry (BD Biosciences, USA) using an excitation wavelength of 488 nm. The data were analysed using FlowJo v10.06 (FlowJo, USA).

cultured DFTD cells = details: cited from earlier work
Excerpt: In this pioneer study, we examined for the first time, in our knowledge, the therapeutic potential of spider-venom peptides against DFTD. Our study provides a molecular and mechanistic characterisation of the mode of action of gomesin peptides to prevent the proliferation of DFTD cells. This is especially relevant since the Tasmanian devil population has declined by at least 80%[1] and currently the therapeutic strategies to slow down the progression of DFTD in infective-devils have been ineffective. That was the case of vincristine, a chemotherapeutic agent used in human and veterinary medici ...

DFTD1 cells = experiment: MTT cell viability, DFTD1 cells; assay type: cell-based, Tasmanian devil (Sarcophilus harrisii); details: Table 3, 48 h
Excerpt: as §1, with “2005. […]” for “2005.”
(§4) Cell viability as an indicator of the number of viable and proliferative cells was measured by MTT according to the protocol of the manufacturer (Sigma-Aldrich, Australia). […] Plates were measured after 48 h at 540 nm absorbance in a microplate reader (BIOTEK PowerWave XS, USA). […]

DFTD2 cells = experiment: MTT cell viability, DFTD2 cells; assay type: cell-based, Tasmanian devil (Sarcophilus harrisii); details: Table 3, 48 h
Excerpt: as §1, with “2005. […]” for “2005.”
as §4

Row | Compound | cell viability / anti-proliferative activity in DFTD4 cells (DFTD4 cells [1]; 48 h) | anti-proliferative / cytotoxic activity compared with AgGom (DFTD4 cells [1]; DFTD cell lines (DFTD1, DFTD2, DFTD4), 48 h) | deleterious effects on FIBS viability (FIBS cells) | effects on FIBS viability (FIBS cells; 0.5 to 25 µg/mL) | G0/G1 (DFTD4 cells [2]) | G2/M (DFTD4 cells [2]) | S-phase (DFTD4 cells [2]) | early or late apoptotic cell ratio (DFTD4 cells [3]) | necrosis of DFTD cells compared to untreated cells (DFTD4 cells [3]) | expression of BCL2 (DFTD4 cells [4]) | expression of p53 (DFTD4 cells [4]) | p27 expression (DFTD4 cells [4]) | ROS (DFTD4 cells [5]) | MMP (DFTD4 cells [6]) | apoptotic activity against cultured DFTD cells (cultured DFTD cells) | EC50 (DFTD4 cells [1]; DFTD4 cells, 48 h exposure, three independent experiments in triplicate) | EC50 (µg/mL) DFTD1 (DFTD1 cells) | EC50 (µg/mL) DFTD2 (DFTD2 cells) | expression of p21 (DFTD4 cells [4]) | expression of pro-survival gene MCL1 (DFTD4 cells [4])
1 | CC(C)C[C@@H]1NC(=O)[C@H](CCCNC(=N)N)NC(=O)[C@H](CCCNC(=N)N)NC(=O)[C@@H](NC(=O)[C@@H]2CCC(=O)N2)CSSC[C@@H](C(=O)N[C@@H](CCCNC(=N)N)C(=O)NCC(=O)N[C@@H](CCCNC(=N)N)C(N)=O)NC(=O)[C@H](Cc2ccc(O)cc2)NC(=O)[C@H]([C@@H](C)O)NC(=O)[C@H](C(C)C)NC(=O)[C@@H]2CSSC[C@H](NC1=O)C(=O)N[C@@H](Cc1ccc(O)cc1)C(=O)N[C@@H](CCCNC(=N)N)C(=O)N[C@@H](CC(N)=O)C(=O)N[C@@H](CCCNC(=N)N)C(=O)N2 [HiGom] ([pGlu]CRRLCYRNRCVTYCRGR-NH2; disulfide 2-15, 6-11) | dramatically reduced the cell viability | more cytotoxic than AgGom | not statistically significant | negligible effects | 47.2 ± 0.66 | 13.3 ± 0.7 | 13.7 ± 1.9 | not altered | significantly increased necrosis | enhanced | enhanced | elevated | significant increase in ROS | significant decrease in MMP |  |  |  |  |  | 
2 | CC(C)Cn1cnc2c(N)nc3ccccc3c21 [imiquimod] |  |  |  |  |  |  |  |  |  |  |  |  |  |  | displayed apoptotic activity |  |  |  |  | 
3 | ZCRRLCYKQRCVTYCRGR-NH2 (bicyclic or more) [AgGom, 18-residue spider peptide gomesin first isolated from hemocytes of Acanthoscurria gomesiana] | dramatically reduced the cell viability |  | not statistically significant |  | 39.9 ± 1.32 | 14.3 ± 0.9 | 11.47 ± 1.35 | not altered | significantly increased necrosis | enhanced | enhanced | statistically significant increase | significant increase in ROS | significant decrease in MMP |  | 25.25 µg/mL | 20.4 µg/mL | 12.29 µg/mL | induction | induction
